According to patent US20110178134A1, “Novel phenyl-substituted imidazolidines, process for preparation thereof, medicaments comprising said compounds and use thereof” (SANOFI-AVENTIS, priority 2008, published 2011):
Like-named read-outs stand apart in the source and are kept apart here.

Key:
[1] = biological target: T1, human androgen receptor (hAR) (Homo sapiens, UniProt P10275, T878A); test: Binding assay with human androgen receptor, [3H]methyltrienolone, LNCaP cytosol; conditions: for inhibition at 1 µM / inhibition at 10 µM: inhibition of [3H]methyltrienolone binding; for inhibition at 1 µM: compound 1 μM; for inhibition at 10 µM: compound 10 μM
T1 construct: for the preparation of cytosolic receptor protein, the androgen-sensitive human prostate adenocarcinoma cell line LNCaP was used; endogenous in cells; host or cells: LNCaP (human prostate adenocarcinoma) cell cytosol fraction
T1 sequence (P10275 1-920 T878A): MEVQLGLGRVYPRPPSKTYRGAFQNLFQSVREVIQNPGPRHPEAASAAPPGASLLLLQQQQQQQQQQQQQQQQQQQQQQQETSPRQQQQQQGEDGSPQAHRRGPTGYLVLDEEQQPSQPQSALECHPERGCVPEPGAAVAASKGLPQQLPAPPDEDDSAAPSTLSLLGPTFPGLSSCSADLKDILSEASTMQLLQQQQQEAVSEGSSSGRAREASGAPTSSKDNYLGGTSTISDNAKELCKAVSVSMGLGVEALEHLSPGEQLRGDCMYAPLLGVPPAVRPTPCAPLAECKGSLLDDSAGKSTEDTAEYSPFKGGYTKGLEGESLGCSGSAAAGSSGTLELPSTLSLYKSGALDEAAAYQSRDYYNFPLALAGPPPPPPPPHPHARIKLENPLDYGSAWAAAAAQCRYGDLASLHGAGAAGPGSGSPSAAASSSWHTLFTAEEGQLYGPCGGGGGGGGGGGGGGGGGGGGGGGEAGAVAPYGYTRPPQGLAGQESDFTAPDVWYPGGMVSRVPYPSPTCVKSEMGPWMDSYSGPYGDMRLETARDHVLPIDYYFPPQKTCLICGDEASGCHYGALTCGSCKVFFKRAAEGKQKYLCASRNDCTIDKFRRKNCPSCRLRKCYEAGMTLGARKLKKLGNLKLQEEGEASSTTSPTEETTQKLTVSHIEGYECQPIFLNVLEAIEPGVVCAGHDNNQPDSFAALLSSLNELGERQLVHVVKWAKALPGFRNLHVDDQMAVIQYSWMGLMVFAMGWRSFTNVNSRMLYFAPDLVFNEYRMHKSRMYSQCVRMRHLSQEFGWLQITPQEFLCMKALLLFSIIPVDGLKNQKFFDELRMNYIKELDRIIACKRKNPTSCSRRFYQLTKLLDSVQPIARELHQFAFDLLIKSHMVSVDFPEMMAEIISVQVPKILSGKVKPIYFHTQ
Description: Binding Assay with Human Androgen Receptor:
The binding assays on the androgen receptor were conducted according to the method of D. T. Zava et al. (1979) (“Androgen Receptor Assay with [^3H]Methyltrienolone (R1881) in the Presence of Progesterone Receptor”, Endocrinology, 104, 1007-1012). The radioactive ligand used for the binding measurement was [^3H]methyltrienolone and the reference substance was the same compound in unmarked (=nonradioactive) form. To determine the unspecific proportion of binding, 1 μM mibolerone was used. In a departure from the method cited, for the preparation of cytosolic receptor protein, the androgen-sensitive human prostate adenocarcinoma cell line LNCaP was used. For the analysis, aliquots of a cell cytosol fraction (proceeding from 10^6 cells per analysis point) were incubated, in a buffer in the presence or absence of test substance, with 0.5 nM [^3H]methyltrienolone at 4° C. for 24 hours (25 mM HEPES/Tris, 1 mM EDTA, 10 mM Na2MoO4, 2 mM DTT, 10% glycerol; pH 7.4). The samples were then mixed with 400 μl each of an activated carbon suspension and the mixtures were centrifuged (10 minutes, 8000×g). Supernatants were withdrawn and mixed with 5 ml each of scintillation cocktail, and the radioactivity of the samples was measured in a scintillation counter. Specific ligand binding to the receptors was calculated as the difference between total binding and the unspecific binding in the presence of an excess of nonmarked ligand. End results were represented as percent specific binding compared to the binding of control substance.
The strength of the binding to the human androgen receptor is expressed as percent inhibition of the binding of [^3H]methyltrienolone to the human androgen receptor. The concentration of the compounds examined is 1 μM or 10 μM. The greater the numerical value of “percent inhibition at 1 or 10 μM”, the stronger is the binding of the test substance to the human androgen receptor. Alternatively, the Ki value is reported; the greater this value compared to the Ki value based on the binding to the hCB1R, the lower is the binding to the hAR.

[2] = biological target: human cannabinoid receptor 1 (hCB1R) (Homo sapiens, UniProt P21554); test: Binding to human cannabinoid receptor 1 (hCB1R), [3H]-SR141716A displacement
Chain of human cannabinoid receptor 1 (hCB1R) (P21554 whole entry): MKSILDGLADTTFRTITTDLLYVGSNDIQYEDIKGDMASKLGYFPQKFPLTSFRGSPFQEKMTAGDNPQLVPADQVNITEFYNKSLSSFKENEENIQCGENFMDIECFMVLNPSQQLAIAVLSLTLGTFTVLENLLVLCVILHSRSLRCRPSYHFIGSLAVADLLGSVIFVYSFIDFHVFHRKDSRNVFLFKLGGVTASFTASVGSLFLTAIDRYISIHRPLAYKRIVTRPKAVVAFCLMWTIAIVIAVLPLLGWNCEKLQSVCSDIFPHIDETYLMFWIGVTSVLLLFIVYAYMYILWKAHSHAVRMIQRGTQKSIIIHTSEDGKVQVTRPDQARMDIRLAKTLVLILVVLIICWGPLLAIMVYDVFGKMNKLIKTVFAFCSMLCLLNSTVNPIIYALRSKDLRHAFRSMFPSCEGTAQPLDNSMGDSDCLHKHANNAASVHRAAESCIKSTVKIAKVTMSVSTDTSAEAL
Description: Binding to Human Cannabinoid Receptor 1 (hCB1R):
Test compounds: The compounds (3 μl, 10 mM, 100% DMSO), pipetted into 96-well PP microtiter plates, were diluted with 27 μl of 100% DMSO (dimethyl sulfoxide). Proceeding from this solution, further 3-fold dilution steps were undertaken by transferring […] in each case to a new PP microtiter plate and adding a further 20 μl of 100% DMSO. In each case 6 μl of these solutions were transferred into new 96-well PP microtiter plates and made up with 144 μl of assay buffer. The end concentrations ranged from 10 μM to 0.005 μM.
Negative control: AM 251, dissolved in assay buffer with 1% DMSO, was added to the dilution series in the microtiter plates as a control. The end concentration was 1 μM.
Blank control: assay buffer with 1% DMSO was added to the dilution series of the microtiter plates as a blank control.
Summary of the Assay Parameters:
High control: ^3H binding without addition of the compound
Low control: ^3H binding in the presence of 1 μM AM 251
The values were calculated using the corrected raw data.
The values reported were obtained as average values of a double determination. The IC50 values were calculated from the measurements with the program Xlfit, formula 205. Ki values were obtained from the IC50 and Kd values utilizing the Cheng-Prusoff equation: […]
Literature: Cheng, Y.-C., and Prusoff, W. H. (1973) Biochem. Pharmacol 22, 3099-3108

[3] = CHO-K1/cannabinoid CB1 protein, 0.5 nM [3H]-SR141716A, Cheng-Prusoff, read-out: hCB1R, binding Ki

| Compound | inhibition at 1 µM [1] | Ki [2, 3] | Ki [2] | also measured |
| --- | --- | --- | --- | --- |
| CC1(C)C(=O)N(c2ccc(C#N)c(C(F)(F)F)c2)C(=O)N1Cc1ccc(OC(F)(F)F)cc1 [Example 2, 4-[4,4-dimethyl-2,5-dioxo-3-(4-trifluoromethoxybenzyl)imidazolidin-1-yl]-2-trifluoromethylbenzonitrile] | 20% | 200 nM | – | – |
| CC1(C)C(=O)N(c2ccc(F)c(C(F)(F)F)c2)C(=O)N1Cc1cc(C(F)(F)F)cc(C(F)(F)F)c1 [Example 9, 1-(3,5-bis(trifluoromethyl)benzyl)-3-(4-fluoro-3-trifluoromethylphenyl)-5,5-dimethylimidazolidine-2,4-dione] | – | 295 nM | – | inhibition at 10 µM [1]: 3% |
| CC1(C)C(=O)N(c2ccc(C#N)c(C(F)(F)F)c2)C(=O)N1Cc1ccc(C(F)(F)F)cc1 [4-[4,4-dimethyl-2,5-dioxo-3-(4-trifluoromethylbenzyl)-imidazolidin-1-yl]-2-trifluoromethylbenzonitrile, reference compound] | – | – | 76 nM | Ki ([1]; read-out: Ki value based on binding to the human androgen receptor): 96 nM |
| CC1(C)C(=O)N(c2ccc(F)c(C(F)(F)F)c2)C(=O)N1Cc1ccccc1Oc1ccccc1 [Example 44, 3-(4-fluoro-3-trifluoromethylphenyl)-5,5-dimethyl-1-(2-phenoxybenzyl)imidazolidine-2,4-dione] | – | 100 nM | – | inhibition at 10 µM [1]: 15% |
| CC1(C)C(=O)N(c2ccc(C#N)c(C(F)(F)F)c2)C(=O)N1Cc1ccc(C(F)(F)F)nc1 [Example 6, 4-[4,4-dimethyl-2,5-dioxo-3-(6-trifluoromethylpyridin-3-ylmethyl)-imidazolidin-1-yl]-2-trifluoromethylbenzonitrile] | 84% | – | 11 nM | – |
| CC1(C)C(=O)N(c2ccc(F)c(C(F)(F)F)c2)C(=O)N1Cc1ccc(C(F)(F)F)nc1 [Example 7, 3-(4-fluoro-3-trifluoromethylphenyl)-5,5-dimethyl-1-(6-trifluoromethyl-pyridin-3-ylmethyl)imidazolidine-2,4-dione] | 47% | 205 nM | – | – |
| CC1(C)C(=O)N(c2ccc(F)c(C(F)(F)F)c2)C(=O)N1Cc1ccc(F)cc1NS(N)(=O)=O [Example 52, N-{5-fluoro-2-[3-(4-fluoro-3-trifluoromethylphenyl)-5,5-dimethyl-2,4-dioxoimidazolidin-1-ylmethyl]phenyl}sulfamide] | 52% | – | 41 nM | – |
| CC1(C)C(=O)N(c2ccc(Cl)c(C(F)(F)F)c2)C(=O)N1Cc1ccc(OCc2ccccc2)c(OCc2ccccc2)c1 [Example 37] | – | 219 nM | – | inhibition at 10 µM [1]: 4% |
| CC1(C)C(=O)N(c2ccc(C#N)c(C(F)(F)F)c2)C(=O)N1Cc1cccc(C(F)(F)F)c1 [Example 3, 4-[4,4-dimethyl-2,5-dioxo-3-(3-trifluoromethylbenzyl)imidazolidin-1-yl]-2-trifluoromethylbenzonitrile] | 54% | 127 nM | – | – |
| CC1(C)C(=O)N(c2ccc(C#N)c(C(F)(F)F)c2)C(=O)N1Cc1ccc(Cl)nc1 [Example 5, 4-[3-(6-chloropyridin-3-ylmethyl)-4,4-dimethyl-2,5-dioxoimidazolidin-1-yl]-2-trifluoromethylbenzonitrile] | 86% | – | 25 nM | – |
| CC1(C)C(=O)N(c2ccc(Cl)c(C(F)(F)F)c2)C(=O)N1Cc1ccc(C(F)(F)F)nc1 [Example 8, 3-(4-chloro-3-trifluoromethylphenyl)-5,5-dimethyl-1-(6-trifluoromethyl-pyridin-3-ylmethyl)imidazolidine-2,4-dione] | 53% | 227 nM | – | – |
| CC1(C)C(=O)N(c2ccc(C#N)c(C(F)(F)F)c2)C(=O)N1Cc1cc(C(F)(F)F)cc(C(F)(F)F)c1 [Example 1, 4-[3-(3,5-bis(trifluoromethyl)benzyl)-4,4-dimethyl-2,5-dioxoimidazolidin-1-yl]-2-trifluoromethylbenzonitrile] | – | – | 4 nM | inhibition at 10 µM [1]: 26% |
| CC1(C)C(=O)N(c2ccc(Cl)c(C(F)(F)F)c2)C(=O)N1Cc1cc(C(F)(F)F)cc(C(F)(F)F)c1 [Example 10, 1-(3,5-bis(trifluoromethyl)benzyl)-3-(4-chloro-3-trifluoromethylphenyl)-5,5-dimethylimidazolidine-2,4-dione] | 3% | – | 81 nM | – |
| CC1(C)C(=O)N(c2ccc(C#N)c(C(F)(F)F)c2)C(=O)N1Cc1cccc(S(F)(F)(F)(F)F)c1 [Example 11, 4-[4,4-dimethyl-2,5-dioxo-3-(3-pentafluorosulfanylbenzyl)imidazolidin-1-yl]-2-trifluoromethylbenzonitrile] | 39% | – | 17 nM | – |
| CC1(C)C(=O)N(c2ccc(C#N)c(C(F)(F)F)c2)C(=O)N1Cc1ccc(OCc2ccccc2)c(OCc2ccccc2)c1 [Example 33, 4-[3-(3,4-bis(benzyloxy)benzyl)-4,4-dimethyl-2,5-dioxoimidazolidin-1-yl]-2-trifluoromethylbenzonitrile] | – | – | 26 nM | Ki ([1]; reported instead of % inhibition in table 5, read-out: hAR, Ki): > 1000 nM |
| CC1(C)C(=O)N(c2ccc(C#N)c(C(F)(F)F)c2)C(=O)N1Cc1ccccc1Oc1ccccc1 [Example 34, 4-[4,4-dimethyl-2,5-dioxo-3-(2-phenoxybenzyl)imidazolidin-1-yl]-2-trifluoromethylbenzonitrile] | 30% | – | 6 nM | – |
